Source: ChEMBL document CHEMBL5356936, “Restoring susceptibility to aminoglycosides: identifying small molecule inhibitors of enzymatic inactivation” (RSC Med Chem, 2023)

Tests used:
[1] = Inhibition of Histone acetyltransferase in human Huh-7.5.1 cells assessed as hepatitis C virus-induced EGF mRNA level measured after 72 hrs; settings: Huh-7.5.1, 72 h
[2] = Inhibition of Aminoglycoside N-acetyltransferases (unknown origin)

SMILES	IC50 [1]	IC50 [2]
O=C(CCCN1CCC(O)(c2ccc(Cl)cc2)CC1)c1ccc(F)cc1 [HALOPERIDOL]	0.39 µM	
CC(CCN[C@H](CN[C@H](CO)CN1CCC[C@H]1CN[C@H](CN)c1ccccc1)c1ccccc1)c1ccccc1 (some centres not stated)		2.1 µM
